Measured values published in patent US8987252B2, “Aryloxy- and heteroaryloxy-substituted tetrahydrobenzazepines and use thereof to block reuptake of norepinephrine, dopamine, and serotonin” (Albany Molecular Research, Inc., priority 2007, dated 2015).
Structures can show the parent of a compound that is named as a salt.

Q: With CN1CCC(Oc2ccccc2Cl)c2ccc(-c3cccnn3)cc2C1 (centres unmarked) (as salt: tartrate) [Example 34, 5-(2-chlorophenoxy)-2-methyl-8-(pyridazin-3-yl)-2,3,4,5-tetrahydro-1H-benzo[c]azepine] as the compound, how does the melting point read?
A: Its melting point is 100 to 102 °C.

Q: For CN1CCC(Oc2ccc3ccccc3c2)c2ccc(-c3cccnn3)cc2C1 (centres unmarked) (as salt: tartrate) [Example 1, 2-methyl-5-(naphthalen-2-yloxy)-8-(pyridazin-3-yl)-2,3,4,5-tetrahydro-1H-benzo[c]azepine], which melting point is on record?
A: Its melting point is 122 to 124 °C.

Q: With CN1CCC(Oc2ccc(OC(F)(F)F)cc2)c2ccc(-c3cccnn3)cc2C1 (centres unmarked) (as salt: tartrate) [Example 4, 2-methyl-8-(pyridazin-3-yl)-5-(4-(trifluoromethoxy)phenoxy)-2,3,4,5-tetrahydro-1H-benzo[c]azepine] as the compound, how does the melting point read?
A: The melting point was 104 to 106 °C.

Q: With Cc1ccc(-c2ccc3c(c2)CNCCC3Oc2ccccc2)nn1 (centres unmarked) (as salt: tartrate) [Example 32, 8-(6-methylpyridazin-3-yl)-5-phenoxy-2,3,4,5-tetrahydro-1H-benzo[c]azepine] as the compound, how does the melting point read?
A: Its melting point is 115 to 118 °C.

Q: For CN1CCC(Oc2ccc3ccccc3c2)c2ccc(-c3cccnn3)cc2C1 (centres unmarked) (as salt: tartrate) [Example 18, 5-(naphthalen-2-yloxy)-2-methyl-8-(pyridazin-3-yl)-2,3,4,5-tetrahydro-1H-benzo[c]azepine], which melting point is on record?
A: The melting point was 120 to 122 °C.

Q: For CN1CCC(Oc2ccccc2Cl)c2ccc(-c3cccnn3)cc2C1 (centres unmarked) (as salt: tartrate) [Example 35, 5-(2-chlorophenoxy)-2-methyl-8-(pyridazin-3-yl)-2,3,4,5-tetrahydro-1H-benzo[c]azepine], which melting point is on record?
A: The melting point was 104 to 106 °C.

Q: Which melting point does the source give for CN1CCC(Oc2ccc(C#N)cc2)c2ccc(-c3cccnn3)cc2C1 (centres unmarked) (as salt: tartrate) [Example 53, 5-(4-cyanophenoxy)-2-methyl-8-(pyridazin-3-yl)-2,3,4,5-tetrahydro-1H-benzo[c]azepine] here?
A: The melting point was 110 to 112 °C.

Q: With CN1CCC(Oc2cc(F)ccc2F)c2ccc(-c3cccnn3)cc2C1 (centres unmarked) (as salt: tartrate) [Example 54, 5-(2,5-difluorophenoxy)-2-methyl-8-(pyridazin-3-yl)-2,3,4,5-tetrahydro-1H-benzo[c]azepine] as the compound, how does the melting point read?
A: The melting point was 102 to 104 °C.

Q: For Cc1ccc(OC2CCN(C)Cc3cc(-c4cccnn4)ccc32)cc1 (centres unmarked) (as salt: tartrate) [Example 3, 2-methyl-8-(pyridazin-3-yl)-5-(p-tolyloxy)-2,3,4,5-tetrahydro-1H-benzo[c]azepine], which melting point is on record?
A: Its melting point is 104 to 106 °C.

Q: For CN1CCC(Oc2cc(F)cc(F)c2)c2ccc(-c3cccnn3)cc2C1 (centres unmarked) (as salt: tartrate) [Example 14, 5-(3,5-difluorophenoxy)-2-methyl-8-(pyridazin-3-yl)-2,3,4,5-tetrahydro-1H-benzo[c]azepine], which melting point is on record?
A: Its melting point is 120 to 122 °C.

Q: With CN1CCC(Oc2cccc(C#N)c2)c2ccc(-c3cccnn3)cc2C1 (centres unmarked) (as salt: tartrate) [Example 52, 5-(3-cyanophenoxy)-2-methyl-8-(pyridazin-3-yl)-2,3,4,5-tetrahydro-1H-benzo[c]azepine] as the compound, how does the melting point read?
A: Its melting point is 113 to 115 °C.

Q: Which melting point does the source give for CN1CCC(Oc2cccc(F)c2)c2ccc(-c3cccnn3)cc2C1 (centres unmarked) (as salt: tartrate) [Example 13, 5-(3-fluorophenoxy)-2-methyl-8-(pyridazin-3-yl)-2,3,4,5-tetrahydro-1H-benzo[c]azepine] here?
A: The melting point was 96 to 98 °C.

Q: For CN1CCC(Oc2ccc3cccnc3c2)c2ccc(-c3cccnn3)cc2C1 (centres unmarked) (as salt: tartrate) [Example 33, 2-methyl-8-(pyridazin-3-yl)-5-(quinolin-7-yloxy)-2,3,4,5-tetrahydro-1H-benzo[c]azepine], which melting point is on record?
A: The melting point was 120 to 122 °C.

Q: Which melting point does the source give for CN1CCC(Oc2ccccc2)c2ccc(-c3cccnn3)cc2C1 (centres unmarked) (as salt: tartrate) [Example 10, 2-methyl-5-phenoxy-8-(pyridazin-3-yl)-2,3,4,5-tetrahydro-1H-benzo[c]azepine] here?
A: Its melting point is 98 to 100 °C.

Q: With CN1CCC(Oc2ccccc2)c2ccc(-c3ncccn3)cc2C1 (centres unmarked) (as salt: tartrate) [Example 49, 2-Methyl-5-phenoxy-8-(pyrimidin-2-yl)-2,3,4,5-tetrahydro-1H-benzo[c]azepine] as the compound, how does the melting point read?
A: The melting point was 108 to 110 °C.

Q: With CN1CCC(Oc2ccccc2F)c2ccc(-c3cccnn3)cc2C1 (centres unmarked) (as salt: tartrate) [Example 12, 5-(2-fluorophenoxy)-2-methyl-8-(pyridazin-3-yl)-2,3,4,5-tetrahydro-1H-benzo[c]azepine] as the compound, how does the melting point read?
A: Its melting point is 96 to 98 °C.

Q: With CN1CCC(Oc2ccc(F)cc2F)c2ccc(-c3cccnn3)cc2C1 (centres unmarked) (as salt: tartrate) [Example 9, 5-(2,4-Difluorophenoxy)-2-methyl-8-(pyridazin-3-yl)-2,3,4,5-tetrahydro-1H-benzo[c]azepine] as the compound, how does the melting point read?
A: The melting point was 98 to 100 °C.

Q: For CN1CCC(Oc2ccc(Cl)cc2)c2ccc(-c3cccnn3)cc2C1 (centres unmarked) (as salt: tartrate) [Example 2, 5-(4-chlorophenoxy)-2-methyl-8-(pyridazin-3-yl)-2,3,4,5-tetrahydro-1H-benzo[c]azepine], which melting point is on record?
A: Its melting point is 106 to 108 °C.

Q: With CN1CCC(Oc2cc(F)cc(F)c2)c2ccc(-c3cccnn3)cc2C1 (centres unmarked) (as salt: tartrate) [Example 5, 5-(3,5-difluorophenoxy)-2-methyl-8-(pyridazin-3-yl)-2,3,4,5-tetrahydro-1H-benzo[c]azepine] as the compound, how does the melting point read?
A: The melting point was 94 to 96 °C.

Q: For CN1CCC(Oc2ccc(Cl)c(Cl)c2)c2ccc(-c3cccnn3)cc2C1 (centres unmarked) (as salt: tartrate) [Example 7, 5-(3,4-Dichlorophenoxy)-2-methyl-8-(pyridazin-3-yl)-2,3,4,5-tetrahydro-1H-benzo[c]azepine], which melting point is on record?
A: The melting point was 102 to 104 °C.

Q: Which melting point does the source give for CN1CCC(Oc2ccc(C#N)cc2)c2ccc(-c3cccnn3)cc2C1 (centres unmarked) (as salt: tartrate) [Example 6, 4-(2-Methyl-8-(pyridazin-3-yl)-2,3,4,5-tetrahydro-1H-benzo[c]azepin-5-yloxy)benzonitrile] here?
A: The melting point was 94 to 96 °C.

Q: For CN1CCC(Oc2ccc(F)c(F)c2)c2ccc(-c3cccnn3)cc2C1 (centres unmarked) (as salt: tartrate) [Example 8, 5-(3,4-Difluorophenoxy)-2-methyl-8-(pyridazin-3-yl)-2,3,4,5-tetrahydro-1H-benzo[c]azepine], which melting point is on record?
A: The melting point was 100 to 102 °C.

Q: With CN1CCC(Oc2cccc(F)c2F)c2ccc(-c3cccnn3)cc2C1 (centres unmarked) (as salt: tartrate) [Example 51, 5-(2,3-difluorophenoxy)-2-methyl-8-(pyridazin-3-yl)-2,3,4,5-tetrahydro-1H-benzo[c]azepine] as the compound, how does the melting point read?
A: The melting point was 112 to 114 °C.

Q: With CN1CCC(Oc2c(F)cccc2F)c2ccc(-c3cccnn3)cc2C1 (centres unmarked) (as salt: tartrate) [Example 55, 5-(2,6-difluorophenoxy)-2-methyl-8-(pyridazin-3-yl)-2,3,4,5-tetrahydro-1H-benzo[c]azepine] as the compound, how does the melting point read?
A: Its melting point is 98 to 100 °C.

Q: For CN1CCC(Oc2cccnc2)c2ccc(-c3cccnn3)cc2C1 (centres unmarked) (as salt: tartrate) [Example 11, 2-methyl-8-(pyridazin-3-yl)-5-(pyridin-3-yloxy)-2,3,4,5-tetrahydro-1H-benzo[c]azepine], which melting point is on record?
A: Its melting point is 120 to 123 °C.

Q: For CN1CCC(Oc2cccc3ccccc23)c2ccc(-c3cccnn3)cc2C1 (centres unmarked) (as salt: tartrate) [Example 15, 2-Methyl-5-(naphthalen-1-yloxy)-8-(pyridazin-3-yl)-2,3,4,5-tetrahydro-1H-benzo[c]azepine], which melting point is on record?
A: Its melting point is 100 to 102 °C.
